Here are results for 1 compound from US11213513B2, “Compositions and methods for promoting hair growth with Mpc1 inhibitors” (The Regents of the University of California, priority 2017, dated 2022).

Each structure is given as a SMILES string. “Also recorded” adds a separate entry of the source.

What all share (format): in vivo, mouse
One data set deals with 17 month old mice. Put plainly: Treatment of elderly (17 month old) shaved mice, hair coat re-growth. Particulars: 20 uM in PLO gel every other day, up to 30 days after shaving; DMSO control patchy. Here is the method: 17 month old mice were shaved and treated every other day with DMSO or 20 uM of the compound of formula (I) diluted in PLO gel (pluronic lecithin organogel). Images were acquired at the indicated day after shaving and carried out for 30 days.

The subject of a further data set is Ldh. Put plainly: In situ Ldh enzyme activity assay in epidermis of topically treated animals. Particulars: in situ stain. An excerpt: (§1) Animals were acquired from Jackson Labs (K15-CrePR, Lgr5-CreER and Lgr6-CreER), Rutter Lab (Mpc^fl/fl) and Seth Lab (Ldha^fl/fl) (Xie, H. et al., Cell Metab., 19, 795-809 (2014)) and maintained under conditions set forth by IUCUC and ARC. For experiments that include analysis of the telogen stage of the hair cycle, animals were harvested at post-natal day 50, for telogen-anagen transition animals were harvested at day 70, and for anagen animals were harvested at post-natal day 90. For experiments that include analysis of transgenic animals, K15-CrePR animals were shaved and treated by intraperitoneal injections of mifepristone and Lgr5-CreER and Lgr6-CreER animals were shaved and treated with tamoxifen (10 mg/ml dissolved in sunflower seed oil, 2 mg per day for 3 days) during telogen (post-natal day 50), and monitored for hair regrowth following shaving. Phenotypes shown from treated animals were produced 3-4 weeks after mifepristone administration. For FIG. 3, wildtype C57BL/6J animals were shaved at post-natal day 50 and treated topically with Transderma PLO Gel (premium lecithin organogel), PLO Gel Ultramax Base (TR220) (vehicle), or the compound of formula (I) (Compound (I)) (20 μM) (Sigma Aldrich product PZ0160) for indicated periods of time. […]

Another data set deals with HFSCs. Kind of data set: Metabolomic analysis (LC-MS) of lactate in HFSCs sorted from topically treated skin.
From the text: as §1, with “administration.” for “administration. For FIG. 3, wildtype C57BL/6J animals were shaved at post-natal day 50 and treated topically with Transderma PLO Gel (premium lecithin organogel), PLO Gel Ultramax Base (TR220) (vehicle), or the compound of formula (I) (Compound (I)) (20 μM) (Sigma Aldrich product PZ0160) for indicated periods of time.”
Whole dorsal and ventral mouse skin were excised and floated on trypsin (0.25%) for 1 h at 37° C. or overnight at 4° C. […] The cells were then filtered through a […] cell strainer and stained for fluorescence-activated cell sorting (FACS) processing with CD34 Monoclonal Antibody (RAM34), FITC, eBioscience™ (Catalog #:11-0341-82) and CD49d (Integrin alpha 4) Monoclonal Antibody (R1-2), PE, eBioscience™ (Catalog #: 12-0492-81). […]

In data set [1] the test system is wildtype C57BL/6J animals. Put plainly: Topical treatment of shaved telogen (day 50) mice, monitoring pigmentation, hair growth and hair cycle. An excerpt: Animals were acquired from Jackson Labs (K15-CrePR, Lgr5-CreER and Lgr6-CreER), Rutter Lab (Mpc^fl/fl) and Seth Lab (Ldha^fl/fl) (Xie, H. et al., Cell Metab., 19, 795-809 (2014)) and maintained under conditions set forth by IUCUC and ARC. For experiments that include analysis of the telogen stage of the hair cycle, animals were harvested at post-natal day 50, for telogen-anagen transition animals were harvested at day 70, and for anagen animals were harvested at post-natal day 90. For experiments that include analysis of transgenic animals, K15-CrePR animals were shaved and treated by intraperitoneal injections of mifepristone and Lgr5-CreER and Lgr6-CreER animals were shaved and treated with tamoxifen (10 mg/ml dissolved in sunflower seed oil, 2 mg per day for 3 days) during telogen (post-natal day 50), and monitored for hair regrowth following shaving. Phenotypes shown from treated animals were produced 3-4 weeks after mifepristone administration. For FIG. 3, wildtype C57BL/6J animals were shaved at post-natal day 50 and treated topically with Transderma PLO Gel ([…] lecithin organogel), PLO Gel Ultramax Base (TR220) (vehicle), or the compound of formula (I) (Compound (I)) (20 μM) (Sigma Aldrich product PZ0160) for indicated periods of time. Both male and female animals were used in this study in approximately equal numbers with no apparent difference in phenotype between genders. All phenotypes described are representative of a minimum of n=3 littermate pairs as indicated in the description of each experiment. No statistical measure was used to determine the sample size beforehand, nor were statistics used to measure effects, as the results were essentially positive or negative as represented in the figures. The results described include data from all treated animals. The investigators were not blinded to allocation during the experimental data collection, nor were the experiments randomized. The results shown were representative images from at least three independently treated animals, and genotyping was performed both before and after animal treatment for confirmation.
Tissues were isolated from the indicated genotypes and embedded fresh in optimal cutting temperature (OCT) compound for frozen tissue preparations, or fixed overnight in 4% formalin and embedded in paraffin. For frozen tissue, sectioning was performed on a Leica 3200 Cryostat, and fixed for 5 minutes in 4% paraformaldehyde. Paraffin embedded tissue was sectioned, de-paraffinized, and prepared for histology. All sections prepared for staining were blocked in staining buffer containing appropriate control IgG (Goat, Rabbit etc.). Immunohistochemistry was performed on formalin-fixed paraffin-embedded tissue with citrate or Tris buffer antigen retrieval with the following antibodies: Ki67 (Abcam ab16667, 1:50), p-S6 (Cell Signaling CST2215, 1:50), Sox9 (Abcam ab185230, 1:1000), Ldha (Abcam ab47010, 1:100), Ldh (Abcam ab125683, 1:100), p-Stat3 (Abcam ab68153, 1:200), p-Stat1 (Abcam ab109461, 1:200), p-Stat5 (Abcam ab32364; 1:50), Gli3 (Abcam ab6050; 1:100), β-catenin (Abcam ab32572; 1:500). The DAKO EnVision+ HRP Peroxidase System (Dako K400911-2) and Dako AEC Substrate Chromogen (Dako K346430-2) was used for detection. Images were collected on an Olympus BX43 Upright Microscope and Zeiss Model Axio Imager M1 Upright Fluorescence Microscope. Protein samples for western blots and enzymatic assays were extracted from FACS sorted epidermal populations in RIPA lysis buffer (Pierce) with Halt protease and phosphatase inhibitors (Thermo-Fisher) and precipitated in acetone for concentration. The following antibodies were used: β-actin (Abcam ab8227; 1:1000), β-actin (Santa Cruz sc-47778; 1:1000), C-Myc (Abcam ab32072; 1:1000), N-Myc (Santa Cruz sc-53993; 1:200), H3K27Ac (Abcam ab177178; 1:200), Mpc1 (Sigma HPA045119).
Both male and female animals were used in this study in approximately equal numbers with no apparent difference in phenotype between genders. […]

Setting [2] is: topical treatment of animals in telogen (day 50).

`N#CC(=Cc1cn(-c2ccccc2)c2ccccc12)C(=O)O` [compound of formula (I)]: the “hair coat re-growth in aged mice” value with 17 month old mice is on record as “more complete re-growth; also recorded: more complete hair growth”. Besides, the “Ldh enzyme activity in interfollicular epidermis” value in the data set with Ldh (topical application for 48 hours during telogen) is reported as “increased Ldh activity in the interfollicular epidermis; also recorded: also seen in interfollicular epidermis”. Besides, in the data set on Ldh (topically treated animals), the “Ldh enzyme activity in HFSCs” value is recorded as “strong activity in HFSCs”. Further, the “lactate levels, replicate experiment” value with HFSCs (48-72 hours of treatment) is listed as “increase in lactate levels”. In addition, in the data set with HFSCs (topical application, 48 hours), the “total levels of lactate in sorted HFSCs” value is recorded as “increases total levels of lactate”. Further, in data set [1] (setting [2]), the “effect on proliferation of the interfollicular epidermis” value is “minor hyperproliferation of the interfollicular epidermis” and the “effect on the hair cycle” value is “robust acceleration of the hair cycle”. In addition, the “time of treatment to full anagen, indicated by full coat of hair” value in data set [1] (topical, 20 μM) turned out to be 14 days. The “skin pathology: anagen entry (down growth of the follicle and hypodermal thickening)” value in data set [1] (topical, 20 μM, vehicle animals remained in telogen) is reported as “entered an accelerated anagen at 8 weeks”. Besides, the “time of treatment to pigmentation and hair growth, indicative of entry into anagen” value in data set [1] (topical, 20 μM, vehicle control showed none even after 12 days) came to 8 days. Further, in data set [1] (topical, at least 6 pairs of animals, vehicle vs compound), the “time to beginning of hair cycle acceleration (time to observed phenotype)” value was in the range of 3 to 5 days.
